Measured values as given in patent US9206241B2, “Modified prokaryotic ubiquitin-like protein and methods of use thereof” (priority 2012, dated 2015).
“Also recorded” adds a separate entry of the source.

Columns and labels:
lysates of Mtb = test: Hydrolysis of substrate in Mtb lysates; format: biochemical, Mycobacterium tuberculosis
DopE10A = DopE10A (Mycobacterium tuberculosis, UniProt P9WNU9, E10A)

MAQEQTKRGGGGGDDDDIAGSTAAGQERREKLTEETDDLLDEIDDV LEENAEDFVRAYVQKGG-Glu(AMC) [1a]
hydrolysis of substrate in lysate (lysates of Mtb): hydrolysis; also recorded: could not hydrolyze
activity of DopE10A on the substrate (DopE10A): no activity
